Consider 14 molecules from US9834542B2, “LXR modulators” (BRISTOL-MYERS SQUIBB COMPANY, priority 2013, dated 2017).

For this assay, the target named is T1, LXRβ (Homo sapiens, UniProt P55055).
T1 construct: Co-transfection expression plasmids, comprising full-length LXRα (pCMX-h LXRα[…] or LXRβ (pCMX-hLXRβ)); expressed in transfected cells; host or cells: CV-1 African Green Monkey Kidney Cells
T1 sequence (P55055 1-460): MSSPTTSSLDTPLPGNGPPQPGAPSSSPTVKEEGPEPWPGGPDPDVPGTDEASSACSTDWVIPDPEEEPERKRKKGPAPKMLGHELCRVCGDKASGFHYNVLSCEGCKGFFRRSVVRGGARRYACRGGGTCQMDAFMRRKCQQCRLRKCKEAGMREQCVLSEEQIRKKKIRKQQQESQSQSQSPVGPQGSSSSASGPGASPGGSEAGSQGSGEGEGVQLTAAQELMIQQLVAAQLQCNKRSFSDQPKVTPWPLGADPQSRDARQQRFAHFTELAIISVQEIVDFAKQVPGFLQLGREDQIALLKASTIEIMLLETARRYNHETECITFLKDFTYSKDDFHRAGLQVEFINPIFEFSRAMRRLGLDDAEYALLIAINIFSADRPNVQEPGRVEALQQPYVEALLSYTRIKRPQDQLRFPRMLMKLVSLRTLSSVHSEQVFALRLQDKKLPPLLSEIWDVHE
T1 sequence (P19793 1-462 partner): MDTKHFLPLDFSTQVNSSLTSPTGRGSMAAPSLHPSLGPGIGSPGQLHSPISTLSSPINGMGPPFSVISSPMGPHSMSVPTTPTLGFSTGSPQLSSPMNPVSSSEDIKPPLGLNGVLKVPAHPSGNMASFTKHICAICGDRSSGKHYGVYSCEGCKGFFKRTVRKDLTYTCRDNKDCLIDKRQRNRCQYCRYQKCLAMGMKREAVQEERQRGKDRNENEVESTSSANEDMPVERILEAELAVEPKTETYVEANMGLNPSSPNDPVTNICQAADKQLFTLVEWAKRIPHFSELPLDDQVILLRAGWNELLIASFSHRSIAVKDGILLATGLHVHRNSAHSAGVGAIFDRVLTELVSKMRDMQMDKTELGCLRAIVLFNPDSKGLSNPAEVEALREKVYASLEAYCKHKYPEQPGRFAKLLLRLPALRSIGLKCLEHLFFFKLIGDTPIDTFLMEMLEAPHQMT
Briefly: Co-transfection assay (LXRE luciferase reporter), LXRβ. In kind it is cell-based. Particulars: for EC50: CV-1 cells transfected with pCMX-hLXRβ and LXREx1-Tk-Luciferase, 20 hours incubation; for Emax: LXRβ co-transfection, relative to high control 1-(2,4-difluorobenzyl)-2-oxo-6-(4-phenoxyphenyl)-4-(trifluoromethyl)-1,2-dihydropyridine-3-carbonitrile, read-out: % Efficacy. From the text: To measure the ability of compounds to activate or inhibit the transcriptional activity of LXR in a cell based assay, the co-transfection assay was used. It has been shown that LXR functions as a heterodimer with RXR. For the co-transfection assay, expression plasmids for LXRα and LXRβ are introduced separately via transient transfection into mammalian cells along with a luciferase reporter plasmid that contains one copy of a DNA sequence that is bound by LXR-RXR heterodimers (LXRE; Willy, P. et. al. 1995). LXRs heterodimerize with the endogenous RXR. Treatment of transfected cells with an LXR agonist increases the transcriptional activity of LXR, which is measured by an increase in luciferase activity.
CV-1 African Green Monkey Kidney Cells
Co-transfection expression plasmids, comprising full-length LXRα (pCMX-h LXRα[…] or LXRβ (pCMX-hLXRβ), reporter plasmid (LXREx1-Tk-Luciferase), and control (pCMX-Galactosidase expression vector) (Willey et al. Genes & Development 9 1033-1045 (1995)).
CV-1 cells were prepared 24 hours prior to the experiment by plating them into T-175 flasks or 500 cm^2 dishes in order to achieve 70-80% confluency on the day of the transfection. The number of cells to be transfected was determined by the number of plates to be screened. Each well of a 384 well plate requires 1.5×10^4 cells. DNA Transfection Reagent was prepared by mixing the required plasmid DNAs with a cationic lipid transfection reagent Transit 2020 (Mirus Bio) for CV1 by following the instructions provided with the reagents. Optimal DNA amounts were determined empirically per cell line and size of vessel to be transfected. For each T175 cm^2 flask a total of 59 ug for CV1 of DNA, 133 uL Transit2020 and 4.5 mL DMEM for CV1 was mixed and added. Cells were then incubated at least 5 hours at 37° C. to prepare screening cells.
Luciferase assay reagent (*Steady-Glo Luciferase Assay System by Promega, CAT#E2550) was prepared by combining before use:
Assay plates were prepared by dispensing 5 μL of compound per well of a 384 well plate to achieve final compound concentration of 10 μM and no more than 0.5% DMSO. Media was removed from the screening cells, the cells trypsinized, harvested cells by centrifugation, counted, and plated at a density of approximately 1.5×10^4 cells in the 384 well assay plate prepared above in a volume of about 95 uL. Assay plates containing both compounds and screening cells (100 μL in total volume) were incubated for 20 hours at 37° C.
After incubation with compounds, media was removed from the cells and luciferase assay reagent (50 μL/well) added. After ˜2 minutes at ambient temperature, the assay plates were read on a luminometer (PE Biosystems Northstar reader with on-board injectors, or Envision(Perkin Elmer) or equivalent).
The LXR/LXRE co-transfection assay can be used to establish the EC50/IC50 values for potency and percent activity or inhibition for efficacy. Efficacy defines the activity of a compound relative to a high control 1-(2,4-difluorobenzyl)-2-oxo-6-(4-phenoxyphenyl)-4-(trifluoromethyl)-1,2-dihydropyridine-3-carbonitrileor a low control (DMSO/vehicle). The dose response curves are generated from a 11 point curve with concentrations differing by ½ LOG units. Each point represents the average of 2 wells of data from duplicate 384 well plate.
The data from this assay is fitted to the following equation, from which the EC50 value may be solved: Y=Bottom+(Top−Bottom)/(1+10^((logEC50-X)*HillSlope)).
The EC50/IC50 is therefore defined as the concentration at which an agonist or antagonist elicits a response that is halfway between the Top (maximum) and Bottom (baseline) values. The EC50/IC50 values represented are the averages of at least 2 and normally 3 independent experiments. […]

Regarding `Cc1nc(C(F)(F)F)cn1-c1ccc(-c2cccc(S(C)(=O)=O)c2)cc1-n1nncc1C(=O)c1ccc(Cl)cc1` [Example 10, (4-chlorophenyl)(1-{3′-(methylsulfonyl)-4-[2-methyl-4-(trifluoromethyl)-1H-imidazol-1-yl]biphenyl-3-yl}-1H-1,2,3-triazol-5-yl)methanone], the EC50 is 541 nM and the Emax was 62%.

Consider `Cc1nc(C(F)(F)F)cn1-c1ccc(-c2cccc(S(C)(=O)=O)c2)cc1-n1nncc1C(O)(c1ccc(Cl)cc1)C(F)(F)F` (stereo not shown) [Example 11, 1-(4-chlorophenyl)-2,2,2-trifluoro-1-(1-{3′-(methylsulfonyl)-4-[2-methyl-4-(trifluoromethyl)-1H-imidazol-1-yl]biphenyl-3-yl}-1H-1,2,3-triazol-5-yl) ethanol], for which it took 332 nM to reach a half-maximal effect (EC50) and the Emax came to 79%.

`Cc1nc(C(F)(F)F)cn1-c1ccc(-c2cccc(S(C)(=O)=O)c2)cc1-n1nncc1C(F)(F)c1ccc(Cl)cc1` [Example 12, 5-[(4-chlorophenyl) (difluoro)methyl]-1-{3′-(methylsulfonyl)-4-[2-methyl-4-(trifluoromethyl)-1H-imidazol-1-yl]biphenyl-3-yl}-1H-1,2,3-triazole]: it took 133 nM to reach a half-maximal effect (EC50) and the Emax was 62%.

Regarding `CS(=O)(=O)c1cccc(-c2ccc(-n3cnc(C(F)(F)F)c3)c(-n3nncc3-c3ccc(Cl)cc3)c2)c1` [Example 13, 5-(4-chlorophenyl)-1-{3′-(methylsulfonyl)-4-[4-(trifluoromethyl)-1H-imidazol-1-yl]biphenyl-3-yl}-1H-1,2,3-triazole], the midpoint of the response, the EC50, lay at 957 nM and the Emax was 74%.

As for `Cc1nc(C(F)(F)F)cn1-c1ccc(-c2cc(Cl)c(CO)c(S(C)(=O)=O)c2)cc1-n1nncc1-c1ccc(Cl)cc1Cl` [Example 18, {3-chloro-3′-[5-(2,4-dichlorophenyl)-1H-1,2,3-triazol-1-yl]-5-(methylsulfonyl)-4′-[2-methyl-4-(trifluoromethyl)-1H-imidazol-1-yl]biphenyl-4-yl}methanol], the half-maximal effective concentration (EC50) worked out at 283 nM and the Emax is 62%.

For `CS(=O)(=O)c1cccc(-c2ccc(-n3cnc(C(F)(F)F)c3)c(-n3nncc3-c3ccc(Cl)cc3Cl)c2)c1` [Example 19, 5-(2,4-dichlorophenyl)-1-{3′-(methylsulfonyl)-4-[4-(trifluoromethyl)-1H-imidazol-1-yl]biphenyl-3-yl}-1H-1,2,3-triazole], the midpoint of the response, the EC50, lay at 1070 nM and the Emax was 80%.

On to `Cc1cc(-c2cnnn2-c2cc(-c3cccc(S(C)(=O)=O)c3)ccc2-n2cc(C(F)(F)F)nc2C)ccc1OC(F)(F)F` [Example 20, 1-{3′-(methylsulfonyl)-4-[2-methyl-4-(trifluoromethyl)-1H-imidazol-1-yl]biphenyl-3-yl}-5-{3-methyl-4-[(trifluoromethyl)oxy]phenyl}-1H-1,2,3-triazole], for which the EC50 turned out to be 130 nM and the Emax came out at 93%.

Consider `Cc1nc(C(F)(F)F)cn1-c1ccc(-c2cc(Cl)c(CO)c(S(C)(=O)=O)c2)cc1-n1nncc1-c1ccc2c(c1)OC(F)(F)O2` [Example 21, {3-chloro-3′-[5-(2,2-difluoro-1,3-benzodioxol-5-yl)-1H-1,2,3-triazol-1-yl]-5-(methylsulfonyl)-4′-[2-methyl-4-(trifluoromethyl)-1H-imidazol-1-yl]biphenyl-4-yl}methanol], for which the 50% effective concentration (EC50) worked out at 502 nM and the Emax worked out at 65%.

Turning to `Cc1nc(C(F)(F)F)cn1-c1ccc(-c2cccc(S(C)(=O)=O)c2)cc1-n1nncc1-c1ccc(N(C)C)cc1` [Example 22, N,N-dimethyl-4-(1-{3′-(methylsulfonyl)-4-[2-methyl-4-(trifluoromethyl)-1H-imidazol-1-yl]biphenyl-3-yl}-1H-1,2,3-triazol-5-yl)aniline], the half-maximal effective concentration (EC50) was 113 nM and the Emax was determined as 99%.

In the case of `Cc1nc(C(F)(F)F)cn1-c1ccc(-c2cccc(S(C)(=O)=O)c2)cc1-n1nncc1-c1ccc(OC(F)(F)C(F)F)cc1` [Example 23, 1-{3′-(methylsulfonyl)-4-[2-methyl-4-(trifluoromethyl)-1H-imidazol-1-yl]biphenyl-3-yl}-5-{4-[(1,1,2,2-tetrafluoroethyl)oxy]phenyl}-1H-1,2,3-triazole], a half-maximal effect (EC50) was put at 507 nM and the Emax is 101%.

On to `COc1ccc(-c2cnnn2-c2cc(-c3cccc(S(C)(=O)=O)c3)ccc2-n2cc(C(F)(F)F)nc2C)c(C)c1` [Example 24, 5-[2-methyl-4-(methyloxy)phenyl]-1-{3′-(methylsulfonyl)-4-[2-methyl-4-(trifluoromethyl)-1H-imidazol-1-yl]biphenyl-3-yl}-1H-1,2,3-triazole], for which it took 512 nM to reach a half-maximal effect (EC50) and the Emax turned out to be 90%.

Consider `Cc1nc(C(F)(F)F)cn1-c1ccc(-c2cccc(S(C)(=O)=O)c2)cc1-n1nncc1-c1cccc(C(F)(F)F)c1` [Example 25, 1-{3′-(methylsulfonyl)-4-[2-methyl-4-(trifluoromethyl)-1H-imidazol-1-yl]biphenyl-3-yl}-5-[3-(trifluoromethyl)phenyl]-1H-1,2,3-triazole], for which the EC50 turned out to be 529 nM and the Emax worked out at 116%.

For `COc1ccc(-c2cnnn2-c2cc(-c3cccc(S(C)(=O)=O)c3)ccc2-n2cc(C(F)(F)F)nc2C)cc1` [Example 26, 5-[4-(methyloxy)phenyl]-1-{3′-(methylsulfonyl)-4-[2-methyl-4-(trifluoromethyl)-1H-imidazol-1-yl]biphenyl-3-yl}-1H-1,2,3-triazole], the concentration for a half-maximal effect (EC50) is 541 nM and the Emax was found to be 93%.

With `Cc1nc(C(F)(F)F)cn1-c1ccc(-c2cccc(C(C)(C)C(N)=O)c2)cc1-n1nncc1-c1ccc(OC(F)(F)F)cc1` [Example 27, 2-methyl-2-{4′-[2-methyl-4-(trifluoromethyl)-1H-imidazol-1-yl]-3′-(5-{4-[(trifluoromethyl)oxy]phenyl}-1H-1,2,3-triazol-1-yl)biphenyl-3-yl}propanamide], the EC50 came out at 561 nM and the Emax turned out to be 83%.
